# Test results published in patent publication US7732481B2, “Prolinylarylacetamides” (Merck Patent Gesellschaft mit beschrankter Haftung, priority 2003, dated 2010).
# What was measured:
# FXa = FXa (Homo sapiens, UniProt P00742); assay: Inhibition of factor Xa (FXa-IC50); assay type: biochemical
# Description: The inhibition of factor Xa by the compounds according to the invention and the measurement of the anticoagulant and antithrombotic activity can be determined by conventional in-vitro or in-vivo methods. A suitable method is described, for example, by J. Hauptmann et al. in Thrombosis and Haemostasis 1990, 63, 220-223.
# The inhibition of factor Xa can be measured, for example by the method of T. Hara et al. in Thromb. Haemostas. 1994, 71, 314-319.
# Sequence of FXa (P00742 235-488 limits assumed): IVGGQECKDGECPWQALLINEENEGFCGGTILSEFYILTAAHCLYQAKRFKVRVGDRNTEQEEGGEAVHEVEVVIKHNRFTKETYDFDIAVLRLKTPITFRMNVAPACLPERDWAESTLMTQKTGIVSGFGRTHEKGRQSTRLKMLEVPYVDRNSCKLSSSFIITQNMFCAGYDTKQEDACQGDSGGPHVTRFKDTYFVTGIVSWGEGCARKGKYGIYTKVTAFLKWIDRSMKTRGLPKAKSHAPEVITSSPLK
# Sequence of FXa (P00742 41-179 limits assumed): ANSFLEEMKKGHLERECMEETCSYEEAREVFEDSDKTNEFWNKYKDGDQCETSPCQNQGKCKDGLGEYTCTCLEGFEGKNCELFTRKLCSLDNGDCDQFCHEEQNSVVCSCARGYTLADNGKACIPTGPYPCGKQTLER
melting point,IC50 (FXa),Structure (SMILES)
95 °C,–,"CN(C)CC(=O)N(C)c1ccc(NC(=O)[C@H]2C[C@@H](O)CN2C(=O)Nc2ccc(Cl)cc2)cc1 [Compound A1, 1-N-(4-Chlorophenyl)-2-N-{4-[(2-dimethylaminoethanoyl)methylamino]-phenyl}-(2R,4R)-4-hydroxypyrrolidine-1,2-dicarboxamide]"
–,54 nM,"CN(C(=O)CN1CCOCC1)c1ccc(NC(=O)[C@H]2C[C@@H](O)CN2C(=O)Nc2ccc(Cl)cc2)cc1 [Compound A1-1, 1-N-(4-chlorophenyl)-2-N-{4-[(2-(morpholin-4-yl)ethanoyl)methylamino]phenyl}-(2R,4R)-4-hydroxypyrrolidine-1,2-dicarboxamide]"
121 °C,17 nM,"CCNCC(=O)N(C)c1ccc(NC(=O)[C@H]2C[C@@H](O)CN2C(=O)Nc2ccc(Cl)cc2)cc1 [Compound A3, 1-N-(4-Chlorophenyl)-2-N-{4-[(2-ethylaminoethanoyl)methylamino]-phenyl}-(2R,4R)-4-hydroxypyrrolidine-1,2-dicarboxamide]"
84 °C,–,"COCC(=O)N(C)c1ccc(NC(=O)[C@H]2C[C@@H](O)CN2C(=O)Nc2ccc(Cl)cc2)cc1 [Compound A4, 1-N-(4-Chlorophenyl)-2-N-{4-[(2-methoxyethanoyl)methylamino]phenyl}-(2R,4R)-4-hydroxypyrrolidine-1,2-dicarboxamide]"
–,37 nM,"CN(C(=O)CN1CCC(O)CC1)c1ccc(NC(=O)[C@H]2C[C@@H](O)CN2C(=O)Nc2ccc(Cl)cc2)cc1 [Compound A1-2, 1-N-(4-chlorophenyl)-2-N-{4-[(2-(4-hydroxypiperidin-1-yl)ethanoyl)-methylamino]phenyl}-(2R,4R)-4-hydroxypyrrolidine-1,2-dicarboxamide]"
